Results taken from US20220386606A1, “SPECIFICALLY SUBSTITUTED 3-PHENYL-5-SPIROCYCLOPENTYL-3-PYRROLIN-2-ONES AND THEIR USE AS HERBICIDES” (Bayer Aktiengesellschaft, priority 2019, published 2022).

What was measured:
[1] = system: VIOTR; test: Pre-emergence herbicidal action against VIOTR; type: in vivo, Viola tricolor; conditions: 320 g/ha
Description: (§1) Seeds of monocotyledonous and dicotyledonous weed plants and crop plants are laid out in sandy loam soil in wood-fiber pots and covered with soil. The compounds of the invention, formulated in the form of wettable powders (WP) or as emulsion concentrates (EC), are then applied to the surface of the covering soil as aqueous suspension or emulsion at a water application rate equating to 600 to 800 L/ha with addition of 0.2% wetting agent.
(§2) After the treatment, the pots are placed in a greenhouse and kept under good growth conditions for the trial plants. The damage to the test plants is scored visually after a test period of 3 weeks by comparison with untreated controls (herbicidal activity in percent (%): 100% activity=the plants have died, 0% activity=like control plants).

[2] = system: SETVI; test: Post-emergence herbicidal action against SETVI; type: in vivo, Setaria viridis; conditions: 80 g/ha, visual assessment about 3 weeks after treatment vs untreated controls
Experimental: (§3) Seeds of monocotyledonous and dicotyledonous weed and crop plants are laid out in sandy loam soil in wood-fiber pots, covered with soil and cultivated in a greenhouse under good growth conditions. 2 to 3 weeks after sowing, the test plants are treated at the one-leaf stage. The compounds of the invention, formulated in the form of wettable powders (WP) or as emulsion concentrates (EC), are then sprayed onto the green parts of the plants as aqueous suspension or emulsion at a water application rate equating to 600 to 800 l/ha with addition of 0.2% wetting agent. After the test plants have been left to stand in the greenhouse under optimal growth conditions for about 3 weeks, the action of the preparations is assessed visually in comparison to untreated controls (herbicidal action in percent (%): 100% activity=the plants have died, 0% activity=like control plants).

[3] = system: ECHCG; test: Post-emergence herbicidal action against ECHCG; type: in vivo, Echinochloa crus-galli; conditions: 80 g/ha, visual assessment about 3 weeks after treatment vs untreated controls
Experimental: as §3

[4] = system: LOLRI; test: Pre-emergence herbicidal action against LOLRI (Table 8, titled post-emergence at 320 g/ha); type: in vivo, Lolium rigidum; conditions: table stands in the pre-emergence section
Description: as §1, §2

[5] = system: DIGSA; test: Post-emergence herbicidal action against DIGSA; type: in vivo, Digitaria sanguinalis; conditions: 80 g/ha, visual assessment about 3 weeks after treatment vs untreated controls
Experimental: as §3

[6] = system: AVEFA; test: Post-emergence herbicidal action against AVEFA; type: in vivo, Avena fatua; conditions: 80 g/ha, visual assessment after about 3 weeks
Experimental: as §3

[7] = system: ALOMY; test: Post-emergence herbicidal action against ALOMY; type: in vivo, Alopecurus myosuroides; conditions: 80 g/ha, visual assessment after about 3 weeks
Experimental: as §3

[8] = system: ALOMY; test: Pre-emergence herbicidal action against ALOMY; type: in vivo, Alopecurus myosuroides; conditions: 320 g/ha, scored visually after 3 weeks vs untreated controls
Description: as §1, §2

[9] = system: LOLRI; test: Post-emergence herbicidal action against LOLRI; type: in vivo, Lolium rigidum; conditions: 80 g/ha, visual assessment about 3 weeks after treatment vs untreated controls
Experimental: as §3

[10] = system: SETVI; test: Pre-emergence herbicidal action against SETVI; type: in vivo, Setaria viridis; conditions: 320 g/ha, scored visually after 3 weeks vs untreated controls
Description: as §1, §2

[11] = system: AVEFA; test: Pre-emergence herbicidal action against AVEFA; type: in vivo, Avena fatua; conditions: 320 g/ha, scored visually after 3 weeks vs untreated controls
Description: as §1, §2

[12] = system: ECHCG; test: Pre-emergence herbicidal action against ECHCG; type: in vivo, Echinochloa crus-galli; conditions: 320 g/ha, scored visually after 3 weeks vs untreated controls
Description: as §1, §2

[13] = system: DIGSA; test: Pre-emergence herbicidal action against DIGSA; type: in vivo, Digitaria sanguinalis; conditions: 320 g/ha, scored visually after 3 weeks vs untreated controls
Description: as §1, §2

Structure (SMILES)	Pre-emergence action against VIOTR in % [1]	Post-emergence action against SETVI in % [2]	Post-emergence action against ECHCG in % [3]	Pre-emergence herbicidal action against LOLRI in % [4]	Post-emergence action against DIGSA in % [5]	Post-emergence action against AVEFA in % [6]	Post-emergence action against ALOMY in % [7]	Pre-emergence action against ALOMY in % [8]	Post-emergence action against LOLRI in % [9]	Pre-emergence action against SETVI in % [10]	Pre-emergence action against AVEFA in % [11]	Pre-emergence action against ECHCG in % [12]	Pre-emergence action against DIGSA in % [13]
CC#Cc1cc(C)c(C2=C(OC(=O)C(C)C)C3(CCC(COCC)C3)NC2=O)c(F)c1 (centres unmarked) [Example P-59]	100%	100%	100%	100%	100%	90%	100%	100%	100%	100%	100%	100%	100%
CC#Cc1cc(F)c(C2=C(OC(=O)OCC)C3(CCC(COC)C3)NC2=O)c(OC)c1 (centres unmarked) [Example P-63]		100%	100%	100%	100%	80%	100%	100%	100%	100%	90%	90%	100%
CC#Cc1cc(F)c(C2=C(OC(=O)C(C)C)C3(CCC(COC)C3)NC2=O)c(OC)c1 (centres unmarked) [Example P-65]	80%	100%	90%	100%	100%	90%	90%	100%	100%	100%	100%	100%	100%
CC#Cc1cc(F)c(C2=C(OC(=O)C(C)C)C3(CCC(COC)C3)NC2=O)c(OC)c1 (centres unmarked) [Example P-66]		100%	100%	90%	100%	90%	90%	100%	100%	100%	100%	100%	100%
CC#Cc1cc(Br)c(C2=C(OC(=O)OCC)C3(CCC(COC)C3)NC2=O)c(OCC)c1 (centres unmarked) [Example P-90]		100%	100%	100%	90%	80%	100%	100%	100%	100%	100%	100%	100%
CC#Cc1cc(Br)c(C2=C(OC(=O)OCC)C3(CCC(COCC)C3)NC2=O)c(OCC)c1 (centres unmarked) [Example P-95]		100%	100%	100%	80%	80%	100%	100%	90%	100%	100%	100%	100%
